Test results as given in PubChem BioAssay AID342 (DTP/NCI, 2004).
“And” between values parts separate entries of the source, which are not always exact repeats. Equal values may be shown once.

Tested on: Swiss mice, Sarcoma 180 sc, mean tumor weight T/C
Test: NCI In Vivo Anticancer Drug Screen. Data for tumor model Sarcoma 180 (subcutaneous) in Swiss mice
Settings: endpoint: mean tumor weight, higher = larger tumour
Experimental: The antitumor activity of compounds was measured in mice bearing transplantable tumors. Survival or tumor size were measured and the results are expressed as the measurement made in the treated group (T) divided by the measurement made in the vehicle treated control group (C). The tumor model used in this assay is Sarcoma 180 (subcutaneous) in Swiss mice

[1] = dose: 500.0 mg/kg/injection, schedule: Q01DX007 (ip), vehicle: carboxymethylcellulose (CMC)
[2] = dose: 12.0 mg/kg/injection, schedule: Q01DX007 (ip), vehicle: carboxymethylcellulose (CMC)
[3] = dose: 62.5 mg/kg/injection, schedule: Q01DX007 (ip), vehicle: carboxymethylcellulose (CMC)
[4] = dose: 125.0 mg/kg/injection, schedule: Q01DX007 (ip), vehicle: carboxymethylcellulose (CMC)
[5] = dose: 0.4 mg/kg/injection, schedule: Q01DX007 (ip), vehicle: carboxymethylcellulose (CMC)
[6] = dose: 0.8 mg/kg/injection, schedule: Q01DX007 (ip), vehicle: carboxymethylcellulose (CMC)
[7] = dose: 3.2 mg/kg/injection, schedule: Q01DX007 (ip), vehicle: carboxymethylcellulose (CMC)

Question: With `COc1ccc(C[C@H]2NC[C@H](O)[C@H]2OC(C)=O)cc1` as the molecule, how does the T/C (dose: 3.13 mg/kg/injection, schedule: Q01DX007 (ip), vehicle: saline) read?
Answer: 65 % of control

Question: What about the T/C (dose: 6.25 mg/kg/injection, schedule: Q01DX007 (ip), vehicle: saline) of the same molecule?
Answer: 69 % of control

Question: And the T/C (dose: 12.5 mg/kg/injection, schedule: Q01DX007 (ip), vehicle: saline)?
Answer: 58 % of control

Question: And the T/C (dose: 25.0 mg/kg/injection, schedule: Q01DX007 (ip), vehicle: saline)?
Answer: 56 % of control and 66 % of control

Question: What about the T/C (dose: 50.0 mg/kg/injection, schedule: Q01DX007 (ip), vehicle: saline) of the same molecule?
Answer: 108 % of control

Question: And the T/C (dose: 100.0 mg/kg/injection, schedule: Q01DX007 (ip), vehicle: saline)?
Answer: 104 % of control

Question: Which results are given for `CCCCCCCCCCOP(N)(=O)OCCCCCCCCCC`?
Answer: T/C (dose: 27.75 mg/kg/injection, schedule: Q#A X014 (ip), vehicle: carboxymethylcellulose (CMC)): 56 % of control and 64 % of control; T/C (dose: 41.5 mg/kg/injection, schedule: Q#A X014 (ip), vehicle: carboxymethylcellulose (CMC)): 60 % of control and 63 % of control

Question: How did the T/C (dose: 26.6 mg/kg/injection, schedule: Q01DX007 (ip), vehicle: carboxymethylcellulose (CMC)) turn out when `ON=C1c2cc(Cl)ccc2-c2ccc(Cl)cc21` was run?
Answer: 77 % of control

Question: What about the T/C (dose: 40.0 mg/kg/injection, schedule: Q01DX007 (ip), vehicle: carboxymethylcellulose (CMC)) of the same molecule?
Answer: 71 % of control

Question: And the T/C (dose: 60.0 mg/kg/injection, schedule: Q01DX007 (ip), vehicle: carboxymethylcellulose (CMC))?
Answer: 61 % of control

Question: What about the T/C (dose: 90.0 mg/kg/injection, schedule: Q01DX007 (ip), vehicle: carboxymethylcellulose (CMC)) of the same molecule?
Answer: 57 % of control

Question: `O=C(Nc1ccc2c(c1)Cc1cccc(NC(=O)C(Cl)Cl)c1-2)C(Cl)Cl` was tested. Which T/C (dose: 222.0 mg/kg/injection, schedule: Q01DX007 (ip), vehicle: carboxymethylcellulose (CMC)) did it give?
Answer: 76 % of control

Question: What about the T/C (dose: 222.0 mg/kg/injection, schedule: Q01DX007 (ip), vehicle: methylcellulose (MC)) of the same molecule?
Answer: 46 % of control

Question: What about the T/C (dose: 222.0 mg/kg/injection, schedule: Q01DX007 (ip), vehicle: other) of the same molecule?
Answer: 52 % of control

Question: And the T/C (dose: 333.0 mg/kg/injection, schedule: Q01DX007 (ip), vehicle: carboxymethylcellulose (CMC))?
Answer: 70 % of control and 90 % of control

Question: What about the T/C (dose: 333.0 mg/kg/injection, schedule: Q01DX007 (ip), vehicle: methylcellulose (MC)) of the same molecule?
Answer: 69 % of control

Question: What about the T/C (dose: 333.0 mg/kg/injection, schedule: Q01DX007 (ip), vehicle: other) of the same molecule?
Answer: 81 % of control

Question: What about the T/C [1] of the same molecule?
Answer: 48 % of control and 58 % of control

Question: What about the T/C (dose: 500.0 mg/kg/injection, schedule: Q01DX007 (ip), vehicle: methylcellulose (MC)) of the same molecule?
Answer: 87 % of control

Question: And the T/C (dose: 500.0 mg/kg/injection, schedule: Q01DX007 (ip), vehicle: other)?
Answer: 122 % of control

Question: And the T/C (dose: 750.0 mg/kg/injection, schedule: Q01DX007 (ip), vehicle: carboxymethylcellulose (CMC))?
Answer: 48 % of control

Question: What about the T/C (dose: 750.0 mg/kg/injection, schedule: Q01DX007 (ip), vehicle: methylcellulose (MC)) of the same molecule?
Answer: 46 % of control

Question: And the T/C (dose: 750.0 mg/kg/injection, schedule: Q01DX007 (ip), vehicle: other)?
Answer: 89 % of control

Question: How did the T/C (dose: 0.15 mg/kg/injection, schedule: Q01DX007 (sc), vehicle: steriod suspending solution) turn out when `CC[C@@H](O)C[C@H]1CCC[C@@]2(C[C@@H]3OC(=O)/C=C/[C@@](C)(O)[C@@H](O)[C@H](C)[C@@H](O)[C@H](OC4CCC(N(C)C)C(C)O4)[C@@H](O)[C@](C)(O)CCCCC/C=C/[C@@H]4CC(C)(C)O[C@@]4(O)C[C@H](O2)[C@H]3C)O1` (some centres not stated) was run?
Answer: 95 % of control

Question: And the T/C (dose: 0.23 mg/kg/injection, schedule: Q01DX007 (sc), vehicle: steriod suspending solution)?
Answer: 113 % of control

Question: And the T/C (dose: 0.34 mg/kg/injection, schedule: Q01DX007 (sc), vehicle: steriod suspending solution)?
Answer: 118 % of control

Question: `Cc1cc(N(CCCl)CCCl)ccc1N=Nc1ccccc1C(=O)O` was tested. Which T/C (dose: 5.3 mg/kg/injection, schedule: Q01DX007 (ip), vehicle: carboxymethylcellulose (CMC)) did it give?
Answer: 33 % of control

Question: And the T/C (dose: 8.0 mg/kg/injection, schedule: Q01DX007 (ip), vehicle: carboxymethylcellulose (CMC))?
Answer: 50 % of control

Question: And the T/C [2]?
Answer: 61 % of control

Question: What about the T/C (dose: 18.0 mg/kg/injection, schedule: Q01DX007 (ip), vehicle: carboxymethylcellulose (CMC)) of the same molecule?
Answer: 27 % of control

Question: How did the T/C [3] turn out when `CN(C)Cc1c[nH]c2ccccc12` was run?
Answer: 69 % of control

Question: Which results are given for `O=c1cn[nH]c(=O)[nH]1`?
Answer: T/C (dose: 62.5 mg/kg/injection, schedule: Q#A X014 (ip), vehicle: carboxymethylcellulose (CMC)): 103 % of control; T/C (dose: 125.0 mg/kg/injection, schedule: Q#A X014 (ip), vehicle: carboxymethylcellulose (CMC)): 77 % of control; T/C (dose: 250.0 mg/kg/injection, schedule: Q#A X014 (ip), vehicle: carboxymethylcellulose (CMC)): 73 % of control; T/C (dose: 500.0 mg/kg/injection, schedule: Q#A X014 (ip), vehicle: carboxymethylcellulose (CMC)): 45 % of control

Question: For `CC1(C)OCC(C(OC(=O)c2ccccc2)C(OC2CCCCO2)C2COC(C)(C)O2)O1` (configuration not stated), which T/C [3] is on record?
Answer: 90 % of control

Question: And the T/C [4]?
Answer: 86 % of control

Question: What about the T/C (dose: 250.0 mg/kg/injection, schedule: Q01DX007 (ip), vehicle: carboxymethylcellulose (CMC)) of the same molecule?
Answer: 100 % of control

Question: How did the T/C (dose: 125.0 mg/kg/injection, schedule: Q01DX007 (sc), vehicle: steriod suspending solution) turn out when `C[C@]12CC[C@@H]3c4ccc(OC(=O)c5ccccc5)cc4CC[C@H]3[C@@H]1CC[C@@H]2O` was run?
Answer: 47 % of control

Question: What about the T/C (dose: 250.0 mg/kg/injection, schedule: Q01DX007 (sc), vehicle: steriod suspending solution) of the same molecule?
Answer: 55 % of control

Question: What about the T/C (dose: 400.0 mg/kg/injection, schedule: Q01DX007 (sc), vehicle: steriod suspending solution) of the same molecule?
Answer: 58 % of control and 83 % of control

Question: What about the T/C (dose: 666.0 mg/kg/injection, schedule: Q01DX007 (sc), vehicle: steriod suspending solution) of the same molecule?
Answer: 59 % of control and 62 % of control

Question: What does the source list for `COC(=O)CC(C(=O)C=[N+]=[N-])N1C(=O)c2ccccc2C1=O` (configuration not stated)?
Answer: T/C (dose: 0.03 mg/kg/injection, schedule: Q01DX007 (ip), vehicle: carboxymethylcellulose (CMC)): 112 % of control; T/C (dose: 0.05 mg/kg/injection, schedule: Q01DX007 (ip), vehicle: carboxymethylcellulose (CMC)): 89 % of control; T/C (dose: 0.1 mg/kg/injection, schedule: Q01DX007 (ip), vehicle: carboxymethylcellulose (CMC)): 101 % of control; T/C (dose: 0.2 mg/kg/injection, schedule: Q01DX007 (ip), vehicle: carboxymethylcellulose (CMC)): 95 % of control and 102 % of control; T/C [5]: 115 % of control; T/C [6]: 88 % of control and 91 % of control; T/C [7]: 99 % of control; T/C (dose: 6.4 mg/kg/injection, schedule: Q01DX007 (ip), vehicle: carboxymethylcellulose (CMC)): 70 % of control and 83 % of control; T/C (dose: 12.8 mg/kg/injection, schedule: Q01DX007 (ip), vehicle: carboxymethylcellulose (CMC)): 87 % of control; T/C (dose: 25.6 mg/kg/injection, schedule: Q01DX007 (ip), vehicle: carboxymethylcellulose (CMC)): 84 % of control

Question: `CC(=O)OC(C)(C)/C=C/C(=O)[C@](C)(O)[C@H]1[C@H](O)C[C@@]2(C)[C@@H]3CC=C4[C@@H](C=C(O)C(=O)C4(C)C)[C@]3(C)C(=O)C[C@]12C` was tested. Which T/C [5] did it give?
Answer: 54 % of control

Question: What about the T/C [6] of the same molecule?
Answer: 29 % of control

Question: And the T/C (dose: 1.6 mg/kg/injection, schedule: Q01DX007 (ip), vehicle: carboxymethylcellulose (CMC))?
Answer: 94 % of control

Question: What about the T/C [7] of the same molecule?
Answer: 88 % of control

Question: Which T/C (dose: 62.0 mg/kg/injection, schedule: Q01DX007 (ip), vehicle: carboxymethylcellulose (CMC)) does the source give for `CC(=O)N(C)C` here?
Answer: 100 % of control

Question: What about the T/C [4] of the same molecule?
Answer: 95 % of control

Question: And the T/C [1]?
Answer: 65 % of control

Question: And the T/C (dose: 750.0 mg/kg/injection, schedule: Q01DX007 (ip), vehicle: saline)?
Answer: 104 % of control

Question: And the T/C (dose: 1000.0 mg/kg/injection, schedule: Q01DX007 (ip), vehicle: saline)?
Answer: 70 % of control

Question: For `CN(N=O)C(N)=O`, which T/C (dose: 1.4 mg/kg/injection, schedule: Q#A X014 (ip), vehicle: carboxymethylcellulose (CMC)) is on record?
Answer: 45 % of control

Question: And the T/C (dose: 1.5 mg/kg/injection, schedule: Q#A X014 (ip), vehicle: carboxymethylcellulose (CMC))?
Answer: 63 % of control

Question: What about the T/C (dose: 2.81 mg/kg/injection, schedule: Q#A X014 (ip), vehicle: carboxymethylcellulose (CMC)) of the same molecule?
Answer: 53 % of control

Question: And the T/C (dose: 3.0 mg/kg/injection, schedule: Q#A X014 (ip), vehicle: carboxymethylcellulose (CMC))?
Answer: 73 % of control

Question: What about the T/C (dose: 5.62 mg/kg/injection, schedule: Q#A X014 (ip), vehicle: carboxymethylcellulose (CMC)) of the same molecule?
Answer: 27 % of control

Question: And the T/C (dose: 6.0 mg/kg/injection, schedule: Q#A X014 (ip), vehicle: carboxymethylcellulose (CMC))?
Answer: 41 % of control

Question: What about the T/C (dose: 7.5 mg/kg/injection, schedule: Q01DX007 (ip), vehicle: carboxymethylcellulose (CMC)) of the same molecule?
Answer: 67 % of control

Question: And the T/C (dose: 9.6 mg/kg/injection, schedule: Q01DX007 (ip), vehicle: carboxymethylcellulose (CMC))?
Answer: 65 % of control

Question: What about the T/C (dose: 11.25 mg/kg/injection, schedule: Q01DX007 (ip), vehicle: carboxymethylcellulose (CMC)) of the same molecule?
Answer: 73 % of control

Question: And the T/C [2]?
Answer: 49 % of control

Question: What about the T/C (dose: 12.0 mg/kg/injection, schedule: Q#A X014 (ip), vehicle: carboxymethylcellulose (CMC)) of the same molecule?
Answer: 35 % of control

Question: And the T/C (dose: 15.0 mg/kg/injection, schedule: Q01DX007 (ip), vehicle: carboxymethylcellulose (CMC))?
Answer: 30 % of control

Question: And the T/C (dose: 16.0 mg/kg/injection, schedule: Q01DX007 (ip), vehicle: carboxymethylcellulose (CMC))?
Answer: 51 % of control

Question: And the T/C (dose: 22.5 mg/kg/injection, schedule: Q01DX007 (ip), vehicle: carboxymethylcellulose (CMC))?
Answer: 14 % of control

Question: And the T/C (dose: 24.0 mg/kg/injection, schedule: Q01DX007 (ip), vehicle: carboxymethylcellulose (CMC))?
Answer: 31 % of control
